One data set has as its target ERBB3. The following applies: Biochemical, AID 1204629; cited from earlier work.
Data set [1] deals with ERBB4. The settings on record: Biochemical, AID 1204629; cited from earlier work.
Data set [2] has as its system EGFR. The settings on record: Biochemical, AID 1204628; cited from earlier work.
Data set [3] deals with EGFR. The following applies: Western blotting, cellular lysates, AID 770081; cited from earlier work.
Another data set has as its target ERBB2. The settings on record: Biochemical, AID 1204629; cited from earlier work.
Data set [4] addresses EGFR (Homo sapiens, UniProt P00533). Description: Split TEV recruitment assay, EGFR-NTEV-tcs-GV in PC12 cells. The settings on record: SH2(GRB2)-CTEV adapter, constant EGF.
Description: (§1) Split TEV recruitment assays were run in six replicates per condition in 96-well plates. 50,000 PC12 cells per well were seeded onto poly-L-lysine (PLL)-coated plates. The next day, cells were transfected with assay plasmids using Lipofectamine 2000. For transfection-based assays, no antibiotics were added to the medium. Per 96-well, a receptor-NTEV-tcs-GV fusion plasmid (10 ng), an adapter-CTEV fusion plasmid for either SHC1 (10 ng), SH2(SHC1) (10 ng), SH2(GRB2) (10 ng), SH2(mix) (10 ng), PIK3R1(50 ng), SH2(PIK3R1) (50 ng), or GRB2 (2.5 ng), and an Fluc reporter plasmid (10 ng, Fluc driven by 10x clustered upstream activating sequences coupled to a minimal CMV promoter, 10 × UAS-minCMVp) were used. […] 16 h later (day 4), the medium was removed, and cells were lysed using Passive Lysis Buffer (Promega) and luciferase activity was analysed using a dual luciferase assay (Promega) in a Mithras LB 940 Multimode Microplate Reader (Berthold Technologies). […] Error bars are calculated as standard error of the mean (SEM).
(§2) For split TEV recruitment assays in a dose–response format, the following amendments to the general protocol were made. […] Error bars are calculated as standard error of the mean (SEM).
The target in the next data set is ERBB2/ERBB3 (Homo sapiens, UniProt P04626+P21860). Description: Split TEV recruitment assay, ERBB3-NTEV-tcs-GV with co-transfected ERBB2 in PC12 cells. The settings on record: SH2(GRB2)-CTEV adapter, constant EGFld.
Sequence of ERBB2/ERBB3 (P21860 20-1342): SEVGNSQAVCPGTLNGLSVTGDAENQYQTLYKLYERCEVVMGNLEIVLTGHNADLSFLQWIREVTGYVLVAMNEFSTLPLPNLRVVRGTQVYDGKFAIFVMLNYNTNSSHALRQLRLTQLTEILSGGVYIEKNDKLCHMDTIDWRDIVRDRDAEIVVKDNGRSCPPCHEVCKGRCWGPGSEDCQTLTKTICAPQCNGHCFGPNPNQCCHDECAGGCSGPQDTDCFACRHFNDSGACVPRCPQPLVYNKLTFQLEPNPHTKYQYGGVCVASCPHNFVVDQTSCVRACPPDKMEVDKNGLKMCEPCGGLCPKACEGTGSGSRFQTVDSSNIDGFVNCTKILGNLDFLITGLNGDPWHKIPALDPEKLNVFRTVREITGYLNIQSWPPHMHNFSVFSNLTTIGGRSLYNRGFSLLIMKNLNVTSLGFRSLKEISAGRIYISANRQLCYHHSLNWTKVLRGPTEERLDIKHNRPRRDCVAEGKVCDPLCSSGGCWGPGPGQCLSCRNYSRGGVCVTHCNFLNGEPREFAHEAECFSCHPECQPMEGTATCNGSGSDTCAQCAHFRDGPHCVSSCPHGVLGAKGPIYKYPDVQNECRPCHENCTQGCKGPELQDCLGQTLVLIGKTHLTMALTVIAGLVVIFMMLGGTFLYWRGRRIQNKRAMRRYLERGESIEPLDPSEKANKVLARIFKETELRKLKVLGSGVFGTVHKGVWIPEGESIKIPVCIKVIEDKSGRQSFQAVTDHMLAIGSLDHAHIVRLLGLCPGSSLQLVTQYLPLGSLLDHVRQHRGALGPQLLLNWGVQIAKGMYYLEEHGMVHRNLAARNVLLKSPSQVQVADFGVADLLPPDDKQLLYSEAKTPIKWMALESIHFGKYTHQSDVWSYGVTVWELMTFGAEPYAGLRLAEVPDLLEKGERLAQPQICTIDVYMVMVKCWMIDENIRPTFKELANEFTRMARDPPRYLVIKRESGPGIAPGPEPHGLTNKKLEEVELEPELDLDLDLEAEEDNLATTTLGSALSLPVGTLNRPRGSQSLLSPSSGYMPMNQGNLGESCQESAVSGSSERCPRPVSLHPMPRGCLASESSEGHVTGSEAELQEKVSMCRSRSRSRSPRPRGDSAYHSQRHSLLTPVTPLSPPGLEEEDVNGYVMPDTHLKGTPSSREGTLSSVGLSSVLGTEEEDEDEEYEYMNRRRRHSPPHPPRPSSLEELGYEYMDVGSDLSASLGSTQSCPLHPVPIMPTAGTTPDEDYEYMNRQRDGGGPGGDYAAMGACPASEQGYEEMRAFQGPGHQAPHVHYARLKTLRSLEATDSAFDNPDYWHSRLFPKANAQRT
Sequence of ERBB2/ERBB3 (P04626 23-1255): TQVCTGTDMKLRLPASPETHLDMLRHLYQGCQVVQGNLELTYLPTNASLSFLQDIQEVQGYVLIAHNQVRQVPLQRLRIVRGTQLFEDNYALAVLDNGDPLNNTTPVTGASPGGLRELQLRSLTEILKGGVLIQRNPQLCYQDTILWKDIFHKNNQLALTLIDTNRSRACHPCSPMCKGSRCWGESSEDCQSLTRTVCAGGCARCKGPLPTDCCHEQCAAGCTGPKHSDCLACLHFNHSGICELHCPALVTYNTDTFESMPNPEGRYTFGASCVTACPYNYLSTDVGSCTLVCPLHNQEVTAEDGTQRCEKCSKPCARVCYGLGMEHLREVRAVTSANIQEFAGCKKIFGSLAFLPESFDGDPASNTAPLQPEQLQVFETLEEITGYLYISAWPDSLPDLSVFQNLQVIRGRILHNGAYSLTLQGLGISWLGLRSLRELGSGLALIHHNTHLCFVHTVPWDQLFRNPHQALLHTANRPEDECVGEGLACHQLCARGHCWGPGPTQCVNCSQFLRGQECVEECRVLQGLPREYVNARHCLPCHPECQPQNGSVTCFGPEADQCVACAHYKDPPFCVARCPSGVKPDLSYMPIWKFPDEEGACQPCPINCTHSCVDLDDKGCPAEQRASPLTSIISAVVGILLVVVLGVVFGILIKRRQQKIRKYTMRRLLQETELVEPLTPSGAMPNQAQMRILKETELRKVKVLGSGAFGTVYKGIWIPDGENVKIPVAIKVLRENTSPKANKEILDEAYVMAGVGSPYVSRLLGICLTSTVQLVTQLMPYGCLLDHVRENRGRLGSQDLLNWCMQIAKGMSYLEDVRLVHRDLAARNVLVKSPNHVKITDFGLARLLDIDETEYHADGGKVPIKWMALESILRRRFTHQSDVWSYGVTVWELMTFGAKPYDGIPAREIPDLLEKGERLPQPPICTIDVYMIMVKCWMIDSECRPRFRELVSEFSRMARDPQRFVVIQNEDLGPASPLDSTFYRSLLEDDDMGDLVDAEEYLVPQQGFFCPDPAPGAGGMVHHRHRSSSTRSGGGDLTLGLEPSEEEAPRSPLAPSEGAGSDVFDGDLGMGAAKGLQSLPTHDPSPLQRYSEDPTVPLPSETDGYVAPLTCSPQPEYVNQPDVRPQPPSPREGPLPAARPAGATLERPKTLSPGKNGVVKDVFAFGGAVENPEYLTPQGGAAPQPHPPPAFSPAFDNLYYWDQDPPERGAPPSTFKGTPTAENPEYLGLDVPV
The test system of data set [5] is ERBB4. Also on record: method as in PMID 28743784. The following applies: split TEV dimerisation assay; cited from earlier work.
Data set [6] has as its target ERBB4 (Homo sapiens, UniProt Q15303). Description: Split TEV recruitment assay, ERBB4-NTEV-tcs-GV in PC12 cells. The settings on record: for Antagonistic effect on ERBB4 activity: SH2(GRB2)-CTEV adapter, PC12 cells, constant EGFld.
Description: Split TEV recruitment assays were run in six replicates per condition in 96-well plates. 50,000 PC12 cells per well were seeded onto poly-L-lysine (PLL)-coated plates. The next day, cells were transfected with assay plasmids using Lipofectamine 2000. For transfection-based assays, no antibiotics were added to the medium. Per 96-well, a receptor-NTEV-tcs-GV fusion plasmid (10 ng), an adapter-CTEV fusion plasmid for either SHC1 (10 ng), SH2(SHC1) (10 ng), SH2(GRB2) (10 ng), SH2(mix) (10 ng), PIK3R1(50 ng), SH2(PIK3R1) (50 ng), or GRB2 (2.5 ng), and an Fluc reporter plasmid (10 ng, Fluc driven by 10x clustered upstream activating sequences coupled to a minimal CMV promoter, 10 × UAS-minCMVp) were used. Additionally, 1 ng of a plasmid constitutively expressing an EYFP that is fused to nuclear localisation sequence (EYFPnuc) driven by a CMV promoter was transfected per 96-well to assess transfection efficiencies (EYFPnuc). In detail, assay plasmids were diluted in 30 µl Opti-MEM (Thermo Fisher Scientific), vortexed, and mixed with 0.2 µl Lipofectamine 2000 per well. The DNA/Lipofectamine/Opti-MEM mix was incubated for 20 min. The medium was removed from the wells and the DNA/Lipofectamine/Opti-MEM mix was added onto the cells. After 2 h of incubation, the maintenance medium without antibiotics was added to the Opti-MEM mix. On day 2, the maintenance medium was replaced by starvation medium. […] 16 h later (day 4), the medium was removed, and cells were lysed using Passive Lysis Buffer (Promega) and luciferase activity was analysed using a dual luciferase assay (Promega) in a Mithras LB 940 Multimode Microplate Reader (Berthold Technologies). […] Error bars are calculated as standard error of the mean (SEM).
as §2
In the next data set the test system is PC12 cells. As to the kind of experiment: Constitutive Renilla luciferase readout to assess toxic effects. The following applies: split TEV dose-response assays. The format is cell-based. The procedure: For split TEV recruitment assays in a dose–response format, the following amendments to the general protocol were made. For a dose–response assay, all cells on the plate were transfected with the same receptor-NTEV-tcs-GV and adapter-CTEV fusions, the Fluc reporter plasmid, 1 ng of a plasmid constitutively expressing Renilla luciferase driven by a thymidine kinase promoter, and the EYFPnuc expressing plasmid. Renilla luciferase was used to assess toxic effects when applying compounds. For dose-dependent stimulation testing activation, six wells per condition were stimulated using increasing concentrations of an agonist at a semi-logarithmic scale. For assays testing inhibition, cells were treated with increasing concentrations of an antagonist at a semi-logarithmic scale, followed 1 h later by the addition of an agonist at a constant concentration. […] Dose–response data were analysed using the R-based ‘drc’ package, as described before. Error bars are calculated as standard error of the mean (SEM). For ease of presentation and intuition, we have transformed conventionally used IC50 values into pIC50 values. These are calculated from IC50 values using the formula pIC50 = − log10(IC50), with units of molar for IC50 and therefore log(molar) for pIC50.

The target of a further data set is IGF1R (Homo sapiens, UniProt P08069). As to the kind of experiment: Split TEV recruitment assay, IGF1R-NTEV-tcs-GV in PC12 cells. The following applies: SH2(GRB2)-CTEV adapter, constant IGF1 stimulus.
Another data set addresses MET (Homo sapiens, UniProt P08581). Description: Split TEV recruitment assay, MET-NTEV-tcs-GV in PC12 cells. The following applies: SH2(GRB2)-CTEV adapter, constant HGF stimulus.

The structures appear in SMILES notation. Read-outs that look alike come from different tables or passages of the source.

Sequence of ERBB4 (Homo sapiens, UniProt Q15303) (Q15303 26-1308): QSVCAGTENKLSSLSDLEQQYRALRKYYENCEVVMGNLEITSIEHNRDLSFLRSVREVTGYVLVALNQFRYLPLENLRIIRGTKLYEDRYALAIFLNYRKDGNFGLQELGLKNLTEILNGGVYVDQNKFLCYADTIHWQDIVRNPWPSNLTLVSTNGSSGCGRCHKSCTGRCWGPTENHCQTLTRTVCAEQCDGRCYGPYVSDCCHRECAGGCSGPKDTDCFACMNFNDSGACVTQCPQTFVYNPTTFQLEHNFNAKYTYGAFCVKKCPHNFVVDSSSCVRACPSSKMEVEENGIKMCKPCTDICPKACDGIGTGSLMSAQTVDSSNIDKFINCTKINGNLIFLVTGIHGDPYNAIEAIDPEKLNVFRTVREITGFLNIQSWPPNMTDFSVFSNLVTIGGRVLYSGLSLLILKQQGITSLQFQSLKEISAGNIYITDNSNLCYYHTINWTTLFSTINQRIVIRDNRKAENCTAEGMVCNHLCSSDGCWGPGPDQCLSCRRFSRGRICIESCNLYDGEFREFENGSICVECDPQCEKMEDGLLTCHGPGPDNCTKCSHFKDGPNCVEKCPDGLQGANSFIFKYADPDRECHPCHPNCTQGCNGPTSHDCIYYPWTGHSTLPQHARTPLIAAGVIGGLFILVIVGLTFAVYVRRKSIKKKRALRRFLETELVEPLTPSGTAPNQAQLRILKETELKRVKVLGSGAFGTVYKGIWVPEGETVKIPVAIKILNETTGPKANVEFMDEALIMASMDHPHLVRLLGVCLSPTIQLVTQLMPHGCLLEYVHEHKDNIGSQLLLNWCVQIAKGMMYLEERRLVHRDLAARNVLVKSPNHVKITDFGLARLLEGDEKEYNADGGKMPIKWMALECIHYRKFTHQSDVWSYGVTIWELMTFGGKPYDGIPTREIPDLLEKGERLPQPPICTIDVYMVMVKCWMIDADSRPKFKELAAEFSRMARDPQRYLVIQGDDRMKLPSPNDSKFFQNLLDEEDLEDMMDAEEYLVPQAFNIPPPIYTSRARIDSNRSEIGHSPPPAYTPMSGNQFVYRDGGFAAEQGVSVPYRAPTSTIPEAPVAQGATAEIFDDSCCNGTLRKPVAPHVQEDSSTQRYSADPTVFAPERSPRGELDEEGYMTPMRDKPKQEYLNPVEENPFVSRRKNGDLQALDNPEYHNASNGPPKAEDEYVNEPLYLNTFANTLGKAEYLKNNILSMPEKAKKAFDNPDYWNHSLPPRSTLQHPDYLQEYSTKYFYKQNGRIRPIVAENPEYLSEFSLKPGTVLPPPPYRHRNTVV
Sequence of EGFR (Homo sapiens, UniProt P00533) (P00533 25-1210): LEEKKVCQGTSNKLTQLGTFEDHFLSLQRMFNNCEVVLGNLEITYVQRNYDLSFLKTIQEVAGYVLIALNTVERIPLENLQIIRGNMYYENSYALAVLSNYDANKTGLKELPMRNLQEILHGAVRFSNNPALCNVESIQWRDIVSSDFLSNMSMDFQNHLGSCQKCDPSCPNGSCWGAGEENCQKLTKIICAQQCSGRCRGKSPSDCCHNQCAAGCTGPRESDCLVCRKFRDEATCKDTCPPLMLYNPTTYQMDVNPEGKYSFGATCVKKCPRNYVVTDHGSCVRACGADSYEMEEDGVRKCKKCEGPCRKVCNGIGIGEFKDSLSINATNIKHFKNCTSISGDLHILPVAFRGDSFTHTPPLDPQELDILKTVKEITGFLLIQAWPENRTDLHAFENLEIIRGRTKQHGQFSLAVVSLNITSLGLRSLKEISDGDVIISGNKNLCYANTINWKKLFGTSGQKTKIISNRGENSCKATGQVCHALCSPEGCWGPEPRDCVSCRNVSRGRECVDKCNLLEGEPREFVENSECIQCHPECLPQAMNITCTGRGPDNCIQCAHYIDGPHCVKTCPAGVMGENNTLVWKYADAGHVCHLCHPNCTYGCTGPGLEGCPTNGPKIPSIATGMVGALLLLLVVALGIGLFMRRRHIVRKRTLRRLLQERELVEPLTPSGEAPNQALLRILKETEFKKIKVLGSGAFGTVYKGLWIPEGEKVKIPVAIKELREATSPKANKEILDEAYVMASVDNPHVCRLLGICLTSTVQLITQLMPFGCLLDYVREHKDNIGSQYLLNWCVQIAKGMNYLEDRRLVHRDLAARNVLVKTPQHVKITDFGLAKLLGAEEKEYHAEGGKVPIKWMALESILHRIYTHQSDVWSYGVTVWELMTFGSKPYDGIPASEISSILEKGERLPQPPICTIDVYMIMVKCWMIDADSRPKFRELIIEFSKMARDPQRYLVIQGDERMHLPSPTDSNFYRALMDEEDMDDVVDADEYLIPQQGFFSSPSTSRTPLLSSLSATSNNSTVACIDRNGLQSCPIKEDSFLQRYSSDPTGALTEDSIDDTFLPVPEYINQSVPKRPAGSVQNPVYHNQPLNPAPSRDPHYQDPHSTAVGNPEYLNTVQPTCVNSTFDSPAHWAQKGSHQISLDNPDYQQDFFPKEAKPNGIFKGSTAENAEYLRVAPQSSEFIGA
Description for ERBB2/ERBB3: as §1, §2
Description for IGF1R: as §1, §2
Description for MET: as §1, §2

Take `C=CC(=O)Nc1cccc(Oc2nc(Nc3ccc(N4CCN(C)CC4)cc3OC)ncc2Cl)c1` [WZ4002]: the “IC50 (nM)/KD” value on ERBB3 and on ERBB2 was 0.42 nM in each case. The pIC50 in the data set with ERBB3 is 9.37; with ERBB4 [1] it was 9.37; with EGFR [2] it was 7.79; in the data set with EGFR [3], 5.93; in the data set with ERBB2 it was 9.37.

Consider `CC(=O)S[C@@H]1CC2=CC(=O)CC[C@]2(C)[C@H]2CC[C@@]3(C)[C@@H](CC[C@@]34CCC(=O)O4)[C@H]12` [Spironolactone, spironolactone], for which, on EGFR [4], the “Antagonistic effect on EGFR activity” value is recorded as “inhibited”. For the same compound, at ERBB2/ERBB3, the “Antagonistic effect on ERBB2/ERBB3 activity” value is recorded as “inhibited”. The “Selectivity among ERBB receptors” value in the data set on ERBB4 [5] was “selectivity for ERBB4 over EGFR”; at ERBB4 [6] (split TEV recruitment assays, SH2(GRB2) adapter), “some selectivity for ERBB4 over EGFR”. For the same compound, the “Antagonistic effect on ERBB4 activity” value at ERBB4 [6] is recorded as “inhibited”.

In the case of `C[C@]12CCC(=O)C=C1C=C[C@@H]1[C@@H]2CC[C@@]2(C)[C@H]1CC[C@@]21CCC(=O)O1` [canrenone], the “Antagonistic effect on EGFR activity” value at EGFR [4] was “did not exhibit any antagonistic effects”. Also, the “Antagonistic effect on ERBB2/ERBB3 activity” value on ERBB2/ERBB3 is listed as “did not exhibit any antagonistic effects”. Besides, the “Antagonistic effect on ERBB4 activity” value at ERBB4 [6] is given as “did not exhibit any antagonistic effects”.

On to `COc1cc2c(Oc3ccc(NC(=O)C4(C(=O)Nc5ccc(F)cc5)CC4)cc3F)ccnc2cc1OCCCN1CCOCC1` [foretinib], for which the “Concentration at which toxic effects occur (constitutive Renilla luciferase readout)” value (shortened to “Concentration”) in the data set with PC12 cells is listed as 30 µM.

With `C[C@]1(O)C[C@@H](c2nc(-c3ccc4ccc(-c5ccccc5)nc4c3)c3c(N)nccn32)C1` [linsitinib], in the data set with PC12 cells, the “Concentration” value came to 30 µM. In addition, on IGF1R, the “Inhibition of IGF1R activity” value is given as “efficiently inhibited”.

As for `CS(=O)(=O)CCNCc1ccc(-c2ccc3ncnc(Nc4ccc(OCc5cccc(F)c5)c(Cl)c4)c3c2)o1` [Lapatinib, lapatinib], in the data set with PC12 cells, the “Concentration” value was determined as 30 µM. In addition, the “Inhibition of IGF1R activity” value on IGF1R is “did not inhibit”. The “Inhibition of MET activity” value on MET is given as “did not inhibit”.
